According to patent US20060264475A1, “COMPOUNDS, COMPOSITIONS AND METHODS FOR INHIBITING OR TREATING HIV-1” (CYTOKINE PHARMASCIENCES, INC., priority 2004, published 2006):

Columns and labels:
ADA strain of HIV-1 = test: inhibition of HIV-1 infection in monocyte-derived macrophages; type: cell-based; conditions: 10, 1, 0.1, 0.01 μM; over a two week period; FIG. 2
Protocol: Macrophages were prepared as described above. After a week of culture in M-CSF, cells were washed several times in RPMI and pre-incubated in complete (NHS, pen/strep, L-glutamine) medium with compound ITI-367 in appropriate concentration overnight (10, 1, 0.1, and 0.01 μM). [ITI-367 having been dissolved in DMSO at 10 mM concentration which was used as a stock solution (stored at −70° C.). From the stock solutions a 50 μM solution of compound in RPMI was prepared and stored at 4° C.]. After overnight incubation with compound, cells were infected with 500,000 cpm (RT activity) of the ADA strain of HIV-1 in 500 μl of RPMI with or without the compound. Two hours after infection, cells were washed with RPMI and incubated in fresh complete medium with the appropriate concentration of compound. Every 3-4 days, half of the medium was collected and used to quantify the level of virus production. Cultures were supplemented with additional medium. Infected macrophages were maintained for 2-3 weeks.

[1] = biological target: T1, association of the viral matrix protein (p 17) with karyopherin α (Human immunodeficiency virus type 1 group M subtype B, UniProt P04591); test: cell free assay of PIC binding to karyopherin α (HIV DNA in the Kα fraction); conditions: cytoplasmic extracts of HIV-1 infected human monocyte-derived macrophages; FIG. 1
T1 construct: The PIC is comprised of a number of viral proteins including MA (p17); endogenous in cells; host or cells: cytoplasmic extracts of human monocyte-derived macrophages infected with HIV-1 (virus-made protein in the PIC)
Source text: The inhibition of a molecular target by ITI-367 is illustrated in FIG. 1. The molecular target for nuclear entry of HIV-1 is the association of the viral matrix protein (p 17) carrying the nuclear localization sequences, with the intracellular protein karyopherin α. To validate the activity of ITI-367, a cell free assay was used whereby human monocyte-derived macrophages collected from fresh blood samples were infected with HIV-1. At the predetermined time cells were lysed and the cytoplasmic extracts collected. The extracts contain HIV-1 pre-integration complexes (PIC) that represent the structure within which the HIV-1 cDNA is imported into the nucleus. The PIC is comprised of a number of viral proteins including MA (p17). […] Therefore, this is a cell free assay. The extent of binding was measured by evaluating the levels of HIV DNA found in the Kα fraction in the presence or absence of test compound.

[2] = system: HIV-1 CCR5 clinical isolate; test: inhibition of HIV-1 infection of T lymphocytes (tonsil cells), p24 ELISA; type: cell-based
Protocol: T lymphocytes were isolated from tonsil tissue 24 hours post-surgical removal and then frozen. Aliquots of all were thawed on day of testing. There was no exogenous stimulation of the tonsil cells. The virus was a CCR5 clinical isolate at an approximate MOI of 1:40,000. Cells were incubated in the presence of ITI-367 for 19 hours prior to a 2.5 hour infection, at which time the virus inoculum was removed followed by two complete media exchanges. Cell culture media was Iscove's Media with 2 mM L-Glutamine, 100 U/ml Penicillin, 100 ug/ml Streptomycin, and 8% heat-inactivated human serum AB. The drug concentrations used were 20 uM, 10 uM, 1 uM and 0.1 uM, prepared from a 50 mM DMSO stock. A no drug infection control (media only) was also evaluated in parallel. Replicates of four or six cultures were used to assess virus production from ITI-367 treated or control samples, respectively. Virus production was evaluated on days 3, 6, 10, 13, & 17 post-infection, by specific ELISA for HIV-1 core antigen (p24). Also, in FIG. 4, virus production was evaluated as a function of drug concentrations at 0, 0.1, 0.5, 1, 5 and 10 μM.

[3] = system: HIV-1 CCR5 clinical isolate; test: ITI-367 combination assay, HIV-1 infectivity in tonsil cells, p24 ELISA; type: cell-based; conditions: combined with NRTi (AZT, d4T), NNRTi (efavirenz), Pi (saquinavir, nelfinavir), FIG. 5-9
Protocol: The inhibitory potential of ITI-367 was tested using HIV-1 infectivity assays in combination with different FDA-approved drugs. […] Tonsil cells, isolated 24 hours post-surgical removal of tonsil tissue then frozen, were used as the target cells. Aliquots of the cells were thawed on the day of testing. There was no exogenous stimulation of the tonsil cells. The virus was a CCR5 clinical isolate at an approximate MOI of 1:40,000. Cells were incubated in the presence of drug for 17 hours prior to a 3.5 hour infection, at which time the virus inoculum was removed through three complete media exchanges. The cells were in the presence of drug before, during, and after all media removals. […]
Cells were cultured at 37° C. and 5% CO2 Samples (150 μl) were harvested on days 3, 5, 7, and 10 post-infection for HIV-1 p24 content analysis by ELISA. […] Uninfected, untreated cells were counted at each sampling to monitor tonsil cell growth kinetics.

`COc1ccccc1-c1noc(=O)n1-c1cccc(C(F)(F)F)c1` [ITI-367] was tested, and the “inhibition of HIV-1 infection in monocyte-derived macrophages” value (ADA strain of HIV-1) was “inhibition of HIV-1 infection”, the “inhibition of association of PIC (MA p17) with karyopherin α” value [1] was “inhibition” and the “inhibition of HIV-1 infection of T lymphocytes” value ([2]; 20, 10, 1, 0.1 uM, p24 over a seventeen day period, FIG. 3) was “inhibition of HIV-1 infection”. The “inhibition of replication of HIV-1 in Primary Lymphocytes” value ([2]; virus production as a function of drug concentration 0-10 μM, FIG. 4) was “inhibition” and the “combination effect on inhibition of HIV-1 replication” value [3] was “synergistic effect”.
